Data taken from PubChem BioAssay (NCI).
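1) Cells in 96-well plates. 2) Compound, 48 h, 5 concentrations. 3) Linear interpolation between surrounding doses. 4) Unreached endpoint = highest concentration. Here, GI50 denotes the concentration required for 50% inhibition of growth. The concentration for full growth arrest is given as TGI.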

Columns and labels:
Assay in all cases: growth of human tumour cells (NCI), 48 h
RPMI-8226 leukemia = system: RPMI-8226 leukemia
COLO 205 colon = system: COLO 205 colon
SK-MEL-5 melanoma = system: SK-MEL-5 melanoma
IGROV1 ovarian = system: IGROV1 ovarian
OVCAR-4 ovarian = system: OVCAR-4 ovarian
SK-OV-3 ovarian = system: SK-OV-3 ovarian
SN12C renal = system: SN12C renal
NCI-H522 lung = system: NCI-H522 lung
OVCAR-8 ovarian = system: OVCAR-8 ovarian
NCI-H23 lung = system: NCI-H23 lung
SNB-19 CNS = system: SNB-19 CNS
MDA-MB-435 = system: MDA-MB-435
HCT-116 colon = system: HCT-116 colon
T-47D breast = system: T-47D breast
HOP-62 NSCLC = system: HOP-62 NSCLC
SK-MEL-28 melanoma = system: SK-MEL-28 melanoma
SW-620 colon = system: SW-620 colon
A498 renal = system: A498 renal
786-0 renal = system: 786-0 renal
SF-539 CNS = system: SF-539 CNS
MCF7 breast = system: MCF7 breast
HL-60(TB) leukemia = system: HL-60(TB) leukemia
HS 578T breast = system: HS 578T breast
UO-31 renal = system: UO-31 renal
UACC-257 melanoma = system: UACC-257 melanoma
OVCAR-5 ovarian = system: OVCAR-5 ovarian
HT29 colon = system: HT29 colon
DU-145 prostate = system: DU-145 prostate
M14 melanoma = system: M14 melanoma

C(#Cc1ccccc1C#Cc1cnccn1)c1cnccn1
TGI (RPMI-8226 leukemia): > 63.4 µM | GI50 (COLO 205 colon): 54.8 µM | TGI (COLO 205 colon): > 100 µM | GI50 (SK-MEL-5 melanoma): 16.9 µM | TGI (SK-MEL-5 melanoma): 35.9 µM | GI50 (IGROV1 ovarian): > 22.9 µM | TGI (IGROV1 ovarian): > 47.9 µM | GI50 (OVCAR-4 ovarian): 38.3 µM | TGI (OVCAR-4 ovarian): > 100 µM | GI50 (SK-OV-3 ovarian): 56 µM | TGI (SK-OV-3 ovarian): > 100 µM | GI50 (SN12C renal): 24.1 µM | TGI (SN12C renal): > 87.1 µM | GI50 (NCI-H522 lung): > 39.2 µM | TGI (NCI-H522 lung): > 61.7 µM | GI50 (OVCAR-8 ovarian): 38.2 µM | TGI (OVCAR-8 ovarian): > 72.6 µM | GI50 (NCI-H23 lung): 21.9 µM | TGI (NCI-H23 lung): 57.3 µM | GI50 (SNB-19 CNS): > 100 µM | TGI (SNB-19 CNS): > 100 µM | GI50 (MDA-MB-435): 18.5 µM | TGI (MDA-MB-435): 51.8 µM | GI50 (HCT-116 colon): 27.8 µM | TGI (HCT-116 colon): > 100 µM | GI50 (T-47D breast): 39.7 µM | TGI (T-47D breast): > 100 µM | GI50 (HOP-62 NSCLC): 26.3 µM | TGI (HOP-62 NSCLC): 85.8 µM | GI50 (SK-MEL-28 melanoma): 46.9 µM | TGI (SK-MEL-28 melanoma): > 100 µM | GI50 (SW-620 colon): 40.2 µM | TGI (SW-620 colon): > 100 µM | GI50 (A498 renal): 20.2 µM | TGI (A498 renal): 72.1 µM | GI50 (786-0 renal): 30.5 µM | TGI (786-0 renal): > 100 µM | GI50 (SF-539 CNS): 27.8 µM | TGI (SF-539 CNS): > 100 µM | GI50 (MCF7 breast): 24.9 µM | TGI (MCF7 breast): > 67.5 µM | GI50 (HL-60(TB) leukemia): 9.32 µM | TGI (HL-60(TB) leukemia): 22.5 µM | GI50 (HS 578T breast): 34.9 µM | TGI (HS 578T breast): > 100 µM | GI50 (UO-31 renal): > 40.3 µM | TGI (UO-31 renal): > 68.4 µM | GI50 (UACC-257 melanoma): 22.7 µM | TGI (UACC-257 melanoma): > 58.6 µM | GI50 (OVCAR-5 ovarian): > 61.7 µM | TGI (OVCAR-5 ovarian): > 100 µM | GI50 (HT29 colon): 41.8 µM | TGI (HT29 colon): > 100 µM | GI50 (DU-145 prostate): 21.8 µM | TGI (DU-145 prostate): > 100 µM | GI50 (M14 melanoma): 19.3 µM | TGI (M14 melanoma): 48.9 µM
